Test results published in PubChem BioAssay (NCI).
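Step 1: Grow cells in 96-well plates. Step 2: Expose to compound for 48 hours at 5 concentrations. Step 3: Interpolate endpoints linearly; if unreached, use highest concentration. GI50 = concentration required for 50% inhibition of growth. TGI: total growth inhibition.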

What was measured:
Assay in all cases: NCI anticancer screen, dose series, 48 h
[1] = test system: IGROV1 ovarian
[2] = test system: HT29 colon
[3] = test system: UACC-62 melanoma
[4] = test system: A498 renal
[5] = test system: HCT-116 colon
[6] = test system: HOP-62 NSCLC
[7] = test system: A549 NSCLC
[8] = test system: SK-OV-3 ovarian
[9] = test system: OVCAR-5 ovarian
[10] = test system: HCC-2998 colon
[11] = test system: 786-0 renal
[12] = test system: SN12C renal
[13] = test system: SK-MEL-2 melanoma
[14] = test system: U251 CNS
[15] = test system: OVCAR-8 ovarian
[16] = test system: SK-MEL-5 melanoma
[17] = test system: PC-3 prostate
[18] = test system: TK-10 renal
[19] = test system: COLO 205 colon
[20] = test system: ACHN renal
[21] = test system: CAKI-1 renal
[22] = test system: UACC-257 melanoma
[23] = test system: DU-145 prostate
[24] = test system: K-562 leukemia
[25] = test system: MDA-MB-435
[26] = test system: SR leukemia
[27] = test system: OVCAR-4 ovarian
[28] = test system: CCRF-CEM leukemia
[29] = test system: MALME-3M melanoma
[30] = test system: NCI/ADR-RES ovarian
[31] = test system: KM12 colon
[32] = test system: MCF7 breast
[33] = test system: EKVX NSCLC
[34] = test system: RPMI-8226 leukemia
[35] = test system: M14 melanoma
[36] = test system: SF-539 CNS
[37] = test system: SNB-19 CNS
[38] = test system: SW-620 colon
[39] = test system: T-47D breast
[40] = test system: NCI-H460 lung
[41] = test system: OVCAR-3 ovarian
[42] = test system: RXF 393 renal
[43] = test system: BT-549 breast
[44] = test system: MOLT-4 leukemia
[45] = test system: NCI-H226 lung
[46] = test system: NCI-H23 lung
[47] = test system: SK-MEL-28 melanoma
[48] = test system: HOP-92 NSCLC
[49] = test system: MDA-MB-231 breast
[50] = test system: SNB-75 CNS
[51] = test system: HCT-15 colon
[52] = test system: UO-31 renal
[53] = test system: SF-268 CNS
[54] = test system: HL-60(TB) leukemia
[55] = test system: MDA-MB-468 breast
[56] = test system: NCI-H522 lung
[57] = test system: LOX IMVI melanoma
[58] = test system: HS 578T breast
[59] = test system: SF-295 CNS

COc1ccc(-c2nc3ccc(-c4nnc(SCc5ccccc5)o4)cc3[nH]2)cc1
GI50 [1]: 10.7 µM
TGI [1]: 23.9 µM
GI50 [2]: 3.48 µM
TGI [2]: 12 µM
GI50 [3]: 2.15 µM
TGI [3]: 6.05 µM
GI50 [4]: 2.17 µM
TGI [4]: 3.97 µM
GI50 [5]: 3.66 µM
TGI [5]: 15.7 µM
GI50 [6]: 3.17 µM
TGI [6]: 9.51 µM
GI50 [7]: 3.48 µM
TGI [7]: 13.8 µM
GI50 [8]: 5.51 µM
TGI [8]: 21.5 µM
GI50 [9]: 15.6 µM
TGI [9]: 38.5 µM
GI50 [10]: 13.2 µM
TGI [10]: 78.9 µM
GI50 [11]: 1.97 µM
TGI [11]: 4.26 µM
GI50 [12]: 2.07 µM
TGI [12]: 4.88 µM
GI50 [13]: 2.44 µM
TGI [13]: 7.73 µM
GI50 [14]: 2.07 µM
TGI [14]: 4.6 µM
GI50 [15]: 1.91 µM
TGI [15]: 3.87 µM
GI50 [16]: 2.64 µM
TGI [16]: 9.41 µM
GI50 [17]: 3.1 µM
TGI [17]: 11.2 µM
GI50 [18]: 3.13 µM
TGI [18]: 8.83 µM
GI50 [19]: 15.9 µM
TGI [19]: 89.1 µM
GI50 [20]: 2.48 µM
TGI [20]: 6 µM
GI50 [21]: 1.98 µM
TGI [21]: 3.81 µM
GI50 [22]: 4.81 µM
TGI [22]: 23.1 µM
GI50 [23]: 6.89 µM
TGI [23]: 23.4 µM
GI50 [24]: 2.9 µM
TGI [24]: 24.8 µM
GI50 [25]: 3.05 µM
TGI [25]: 11.3 µM
GI50 [26]: 4.76 µM
TGI [26]: > 100 µM
GI50 [27]: 2.12 µM
TGI [27]: 5.08 µM
GI50 [28]: 2.82 µM
TGI [28]: 19.6 µM
GI50 [29]: 1.81 µM
TGI [29]: 3.58 µM
GI50 [30]: 2.51 µM
TGI [30]: 7.69 µM
GI50 [31]: 11.3 µM
TGI [31]: > 100 µM
GI50 [32]: 2.86 µM
TGI [32]: 12.8 µM
GI50 [33]: 3.98 µM
TGI [33]: 16.6 µM
GI50 [34]: 2.96 µM
TGI [34]: 17.4 µM
GI50 [35]: 4.25 µM
TGI [35]: 26.5 µM
GI50 [36]: 1.73 µM
TGI [36]: 3.22 µM
GI50 [37]: 7.81 µM
TGI [37]: 21 µM
GI50 [38]: 7.02 µM
TGI [38]: 44.2 µM
GI50 [39]: 2.02 µM
TGI [39]: 4.84 µM
GI50 [40]: 3.71 µM
TGI [40]: 16.3 µM
GI50 [41]: 2.82 µM
TGI [41]: 6.37 µM
GI50 [42]: 2.2 µM
TGI [42]: 7.45 µM
GI50 [43]: 3.27 µM
TGI [43]: 7.64 µM
GI50 [44]: 3.58 µM
TGI [44]: > 100 µM
GI50 [45]: 1.76 µM
TGI [45]: 3.84 µM
GI50 [46]: 4.21 µM
TGI [46]: 19.8 µM
GI50 [47]: 3.14 µM
TGI [47]: 12.2 µM
GI50 [48]: 6.46 µM
TGI [48]: 24 µM
GI50 [49]: 2.55 µM
TGI [49]: 6.3 µM
GI50 [50]: 1.66 µM
TGI [50]: 3.27 µM
GI50 [51]: 2.97 µM
TGI [51]: 11.9 µM
GI50 [52]: 4.16 µM
TGI [52]: 16.1 µM
GI50 [53]: 3.53 µM
TGI [53]: 13.7 µM
GI50 [54]: 2.79 µM
TGI [54]: 15.5 µM
GI50 [55]: 2.36 µM
TGI [55]: 7.36 µM
GI50 [56]: 2.27 µM
TGI [56]: 7.08 µM
GI50 [57]: 1.91 µM
TGI [57]: 3.73 µM
GI50 [58]: 2.77 µM
TGI [58]: 7.29 µM
GI50 [59]: 2.07 µM
TGI [59]: 4.42 µM
